Results from ChEMBL document CHEMBL4138081, “Recent developments of coumarin-containing derivatives and their anti-tubercular activity” (Eur J Med Chem, 2017).
Values after ≈ are worked out from the molar mass of the structure shown.

How the values were obtained:
[1] = Resistant index, ratio of MIC for INH resistant Mycobacterium tuberculosis to MIC for Mycobacterium tuberculosis H37Rv; assay type: functional
[2] = system: Mycobacterium tuberculosis; assay: Antimycobacterial activity against INH resistant Mycobacterium tuberculosis after 72 hrs by alamar blue dye-based broth dilution assay; assay type: functional

| Structure (SMILES) | Ratio [1] | MIC [2] [µM] |
| --- | --- | --- |
| O=c1oc2ccccc2cc1C(c1cccs1)c1c(O)c2ccccc2oc1=O (centres undefined) | 1.6 | 8.34 (≈ 3.36 µg/mL) |
| Cc1cc2oc(=O)c(C(c3cccs3)c3c(O)c4cc(C)c(C)cc4oc3=O)c(C)c2cc1C (centres undefined) | 1.6 | 8.34 (≈ 3.94 µg/mL) |
